Results reported in US8614327B2 (Vertex Pharmaceuticals Incorporated, priority 2004, dated 2013).

Target: T1, ΔF508-CFTR (Homo sapiens, UniProt P13569, DEL508-508)
T1 construct: expressed in transfected cells
Test: Membrane potential optical (FRET/VIPR) assay, identification of potentiator compounds
Type: cell-based
Details: Table 3, assay not given; for % Activity: relative efficacy
Procedure, shortened: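 NIH3T3 mouse fibroblasts stably expressing ΔF508-CFTR, temperature-corrected 24 h at 27° C., read on VIPR by FRET between CC2-DMPE and DiSBAC2(3). Potentiators identified in a double-addition format, first adding chloride-free (gluconate) medium with or without compound.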

T1 sequence (P13569 with tags, fused parts or gaps DEL508-508): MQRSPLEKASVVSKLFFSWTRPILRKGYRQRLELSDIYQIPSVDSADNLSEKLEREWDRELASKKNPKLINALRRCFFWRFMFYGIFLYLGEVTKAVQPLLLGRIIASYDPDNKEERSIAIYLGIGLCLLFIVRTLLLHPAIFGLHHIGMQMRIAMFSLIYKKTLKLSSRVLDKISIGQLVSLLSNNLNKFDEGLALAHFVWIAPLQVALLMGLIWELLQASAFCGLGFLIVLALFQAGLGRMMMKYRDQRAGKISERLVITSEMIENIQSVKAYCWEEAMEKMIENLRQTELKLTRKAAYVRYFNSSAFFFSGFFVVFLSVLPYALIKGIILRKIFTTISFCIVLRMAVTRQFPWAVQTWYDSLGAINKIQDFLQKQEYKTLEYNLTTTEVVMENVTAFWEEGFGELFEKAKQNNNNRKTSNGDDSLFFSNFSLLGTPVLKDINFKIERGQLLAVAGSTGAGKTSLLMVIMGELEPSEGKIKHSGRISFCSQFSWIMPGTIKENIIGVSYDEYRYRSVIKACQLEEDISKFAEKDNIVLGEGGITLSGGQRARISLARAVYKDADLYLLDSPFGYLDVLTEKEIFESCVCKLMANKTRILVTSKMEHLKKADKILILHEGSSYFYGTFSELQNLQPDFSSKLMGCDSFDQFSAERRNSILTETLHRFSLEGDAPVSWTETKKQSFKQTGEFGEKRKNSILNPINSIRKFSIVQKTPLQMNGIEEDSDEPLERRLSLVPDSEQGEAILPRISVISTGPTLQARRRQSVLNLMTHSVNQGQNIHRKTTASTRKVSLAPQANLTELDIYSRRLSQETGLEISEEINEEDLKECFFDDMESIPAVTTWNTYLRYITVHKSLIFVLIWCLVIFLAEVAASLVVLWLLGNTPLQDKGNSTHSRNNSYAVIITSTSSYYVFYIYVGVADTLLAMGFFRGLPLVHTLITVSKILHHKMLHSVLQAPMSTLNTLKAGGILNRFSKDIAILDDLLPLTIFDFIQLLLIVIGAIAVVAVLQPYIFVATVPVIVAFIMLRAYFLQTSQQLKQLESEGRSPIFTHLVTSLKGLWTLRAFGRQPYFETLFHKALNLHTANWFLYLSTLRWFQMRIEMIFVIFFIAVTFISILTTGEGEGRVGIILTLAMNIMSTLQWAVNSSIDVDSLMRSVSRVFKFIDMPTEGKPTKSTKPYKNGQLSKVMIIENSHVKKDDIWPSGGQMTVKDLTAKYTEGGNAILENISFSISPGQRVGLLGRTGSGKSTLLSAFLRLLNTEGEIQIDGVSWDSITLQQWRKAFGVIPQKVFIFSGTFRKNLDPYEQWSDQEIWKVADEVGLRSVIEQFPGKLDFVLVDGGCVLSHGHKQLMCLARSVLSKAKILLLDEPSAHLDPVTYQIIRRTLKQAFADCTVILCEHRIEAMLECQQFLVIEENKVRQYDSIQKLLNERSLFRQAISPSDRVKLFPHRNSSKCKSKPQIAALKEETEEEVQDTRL

Row | EC50 | % Activity | Compound
1 | < 10 µM | ++ (between 25% to 100%) | CC1CCN(c2ccc(NC(=O)c3c[nH]c4ccccc4c3=O)c(C(F)(F)F)c2)C1 (stereo not drawn) [Compound 555, N-[4-(3-methylpyrrolidin-1-yl)-2-(trifluoromethyl)phenyl]-4-oxo-1H-quinoline-3-carboxamide]
2 | < 10 µM | ++ (between 25% to 100%) | CC(C)(C)C(=O)Nc1ccc(NC(=O)c2c[nH]c3ccccc3c2=O)c(C(F)(F)F)c1 [Compound 556, N-[4-(2,2-dimethylpropanoylamino)-2-(trifluoromethyl)phenyl]-4-oxo-1H-quinoline-3-carboxamide]
3 | < 10 µM | ++ (between 25% to 100%) | CC(C)c1ccc(NC(=O)c2c[nH]c3ccc(F)cc3c2=O)c(C(F)(F)F)c1 [Compound 557, 6-fluoro-N-[4-isopropyl-2-(trifluoromethyl)phenyl]-4-oxo-1H-quinoline-3-carboxamide]
4 | < 10 µM | ++ (between 25% to 100%) | CC(C)(C)c1cc2cc[nH]c2cc1NC(=O)c1c[nH]c2cc(C#N)ccc2c1=O [Compound 558, 7-cyano-4-oxo-N-(5-tert-butyl-1H-indol-6-yl)-1H-quinoline-3-carboxamide]
5 | 10 to 25 µM | + (<25%) | CC(C)(C)c1cc2cc[nH]c2cc1NC(=O)c1c[nH]c2c(C(F)(F)F)cccc2c1=O [Compound 559, 4-oxo-N-(5-tert-butyl-1H-indol-6-yl)-8-(trifluoromethyl)-1H-quinoline-3-carboxamide]
6 | < 10 µM | ++ (between 25% to 100%) | O=C(Nc1ccc(N2CCCC2)cc1C(F)(F)F)c1c[nH]c2ccc(F)cc2c1=O [Compound 562, 6-fluoro-4-oxo-N-[4-pyrrolidin-1-yl-2-(trifluoromethyl)phenyl]-1H-quinoline-3-carboxamide]
7 | < 10 µM | ++ (between 25% to 100%) | O=C(Nc1cc(O)cc(C(F)(F)F)c1)c1c[nH]c2ccccc2c1=O [Compound 563, N-[3-hydroxy-5-(trifluoromethyl)phenyl]-4-oxo-1H-quinoline-3-carboxamide]
8 | < 10 µM | ++ (between 25% to 100%) | Cc1cccc2[nH]cc(C(=O)Nc3cc4[nH]ccc4cc3C(C)(C)C)c(=O)c12 [Compound 565, 5-methyl-4-oxo-N-(5-tert-butyl-1H-indol-6-yl)-1H-quinoline-3-carboxamide]
9 | < 10 µM | ++ (between 25% to 100%) | COCCn1ccc2cc(C(F)(F)F)c(NC(=O)c3c[nH]c4ccc(F)cc4c3=O)cc21 [Compound 566, 6-fluoro-N-[1-(2-methoxyethyl)-5-(trifluoromethyl)indol-6-yl]-4-oxo-1H-quinoline-3-carboxamide]
10 | < 10 µM | ++ (between 25% to 100%) | Cc1ccc2[nH]cc(C(=O)Nc3ccc(N4[C@H](C)CC[C@H]4C)cc3C(F)(F)F)c(=O)c2c1 [Compound 569, N-(4-((2R,5R)-2,5-dimethylpyrrolidin-1-yl)-2-(trifluoromethyl)phenyl)-6-methyl-4-oxo-1,4-dihydroquinoline-3-carboxamide]
11 | < 10 µM | ++ (between 25% to 100%) | CC(C)c1cc(C(F)(F)F)c(NC(=O)c2c[nH]c3ccccc3c2=O)cc1OCc1ccccc1 [Compound 570, N-[5-benzyloxy-4-isopropyl-2-(trifluoromethyl)phenyl]-4-oxo-1H-quinoline-3-carboxamide]
12 | < 10 µM | + (<25%) | COc1nc(NC(=O)c2c[nH]c3ccccc3c2=O)ccc1C(F)(F)F [Compound 571, N-[6-methoxy-5-(trifluoromethyl)-2-pyridyl]-4-oxo-1H-quinoline-3-carboxamide]
13 | – | ++ (between 25% to 100%) | C[C@@H]1CCCN1c1ccc(NC(=O)c2c[nH]c3ccccc3c2=O)c(C(F)(F)F)c1 [Compound 572, (R)-N-(4-(2-methylpyrrolidin-1-yl)-2-(trifluoromethyl)phenyl)-4-oxo-1,4-dihydroquinoline-3-carboxamide]
14 | < 10 µM | ++ (between 25% to 100%) | CC(C)c1ccc(NC(=O)c2c[nH]c3c(F)cccc3c2=O)c(C(F)(F)F)c1 [Compound 573, 8-fluoro-N-[4-isopropyl-2-(trifluoromethyl)phenyl]-4-oxo-1H-quinoline-3-carboxamide]
15 | < 10 µM | ++ (between 25% to 100%) | O=C(Nc1cc(O)cc(C(F)(F)F)c1)c1c[nH]c2ccc(F)cc2c1=O [Compound 574, 6-fluoro-N-[3-hydroxy-5-(trifluoromethyl)phenyl]-4-oxo-1H-quinoline-3-carboxamide]
16 | < 10 µM | ++ (between 25% to 100%) | Cc1ccc2c(=O)c(C(=O)Nc3cc4[nH]ccc4cc3C(F)(F)F)c[nH]c2c1 [Compound 576, 7-methyl-4-oxo-N-[5-(trifluoromethyl)-1H-indol-6-yl]-1H-quinoline-3-carboxamide]
17 | < 10 µM | ++ (between 25% to 100%) | Cc1ccc(C(F)(F)F)cc1NC(=O)c1c[nH]c2ccccc2c1=O [Compound 577, N-[2-methyl-5-(trifluoromethyl)phenyl]-4-oxo-1H-quinoline-3-carboxamide]

The next lines start with the compound.

Row | Compound | EC50 | % Activity
18 | CC(C)(C)c1c[nH]c2cc(NC(=O)c3c[nH]c4ccc(F)cc4c3=O)ccc12 [Compound 554, 6-fluoro-4-oxo-N-(3-tert-butyl-1H-indol-6-yl)-1H-quinoline-3-carboxamide] | < 10 µM | ++ (between 25% to 100%)
19 | COc1cc(NC(=O)c2c[nH]c3ccccc3c2=O)ccc1-n1c(C)ccc1C [Compound 560, N-[4-(2,5-dimethylpyrrol-1-yl)-3-methoxy-phenyl]-4-oxo-1H-quinoline-3-carboxamide] | < 10 µM | ++ (between 25% to 100%)
20 | CC(C)(C)c1cc(F)c(NC(=O)c2c[nH]c3ccc(Cl)cc3c2=O)cc1O [Compound 561, 6-chloro-N-(2-fluoro-5-hydroxy-4-tert-butyl-phenyl)-4-oxo-1H-quinoline-3-carboxamide] | < 10 µM | ++ (between 25% to 100%)
21 | O=C(Nc1ccc(C2CCCCC2)c(O)c1)c1c[nH]c2ccccc2c1=O [Compound 564, N-(4-cyclohexyl-3-hydroxy-phenyl)-4-oxo-1H-quinoline-3-carboxamide] | < 10 µM | ++ (between 25% to 100%)
22 | O=C(Nc1ccc(N2CCC[C@H]2C(=O)O)cc1C(F)(F)F)c1c[nH]c2ccccc2c1=O [Compound 567, (S)-1-[4-[(4-oxo-1H-quinolin-3-yl)carbonylamino]-3-(trifluoromethyl)phenyl]pyrrolidine-2-carboxylic acid] | < 10 µM | ++ (between 25% to 100%)
23 | CC(C)c1ccc(NC(=O)c2c[nH]c3ccccc3c2=O)cc1O [Compound 575, N-(3-hydroxy-4-isopropyl-phenyl)-4-oxo-1H-quinoline-3-carboxamide] | < 10 µM | ++ (between 25% to 100%)
24 | Cc1cccc2[nH]cc(C(=O)Nc3ccc(N4CCC(C)(C)C4)cc3C(F)(F)F)c(=O)c12 [Compound 578, N-[4-(3,3-dimethylpyrrolidin-1-yl)-2-(trifluoromethyl)phenyl]-5-methyl-4-oxo-1H-quinoline-3-carboxamide] | < 10 µM | ++ (between 25% to 100%)
25 | O=C(Nc1ccc(OC(F)(F)F)c(N2CCCC2)c1)c1c[nH]c2ccccc2c1=O [Compound 579, 4-oxo-N-[3-pyrrolidin-1-yl-4-(trifluoromethoxy)phenyl]-1H-quinoline-3-carboxamide] | < 10 µM | ++ (between 25% to 100%)
26 | CC(C)(C)c1cc(C(C)(C)C)c(NC(=O)c2c[nH]c3c(C(F)(F)F)cccc3c2=O)cc1O [Compound 580, N-(5-hydroxy-2,4-ditert-butyl-phenyl)-4-oxo-8-(trifluoromethyl)-1H-quinoline-3-carboxamide] | < 10 µM | + (<25%)
27 | Cc1cccc2[nH]cc(C(=O)Nc3ccc(N4CCC[C@@H]4C)nc3C(F)(F)F)c(=O)c12 [Compound 581, (S)-5-methyl-N-(6-(2-methylpyrrolidin-1-yl)-2-(trifluoromethyl)pyridin-3-yl)-4-oxo-1,4-dihydroquinoline-3-carboxamide] | < 10 µM | ++ (between 25% to 100%)
28 | Cc1cccc2[nH]cc(C(=O)Nc3ccc(N4C[C@@H]5CC[C@H]4C5)cc3C(F)(F)F)c(=O)c12 [Compound 582, N-(4-((1S,4R)-2-azabicyclo[2.2.1]heptan-2-yl)-2-(trifluoromethyl)phenyl)-5-methyl-4-oxo-1,4-dihydroquinoline-3-carboxamide] | < 10 µM | ++ (between 25% to 100%)
29 | COc1ccc2c(=O)c(C(=O)Nc3cc(O)c(C(C)(C)C)cc3C(C)(C)C)c[nH]c2c1 [Compound 583, N-(5-hydroxy-2,4-ditert-butyl-phenyl)-7-methoxy-4-oxo-1H-quinoline-3-carboxamide] | < 10 µM | ++ (between 25% to 100%)
30 | COc1ccc2[nH]cc(C(=O)Nc3cc(O)c(C4(C)CCCCC4)cc3F)c(=O)c2c1 [Compound 584, N-[2-fluoro-5-hydroxy-4-(1-methylcyclohexyl)-phenyl]-6-methoxy-4-oxo-1H-quinoline-3-carboxamide] | < 10 µM | ++ (between 25% to 100%)
31 | CC(C)(C)c1cc(C(C)(C)C)c(NC(=O)c2c[nH]c3cccc(N)c3c2=O)cc1O [Compound 585, 5-amino-N-(5-hydroxy-2,4-ditert-butyl-phenyl)-4-oxo-1H-quinoline-3-carboxamide] | < 10 µM | +++ (>100%)
32 | CC(C)c1ccc(NC(=O)c2c[nH]c3cccc(O)c3c2=O)cc1O [Compound 587, 5-hydroxy-N-(3-hydroxy-4-isopropyl-phenyl)-4-oxo-1H-quinoline-3-carboxamide] | < 10 µM | ++ (between 25% to 100%)
